Results published in ChEMBL document CHEMBL4387741, “Optimization of novel reversible Bruton's tyrosine kinase inhibitors identified using Tethering-fragment-based screens” (Bioorg Med Chem, 2019).

Assays:
[1] = target: Ephrin type-A receptor 4 (Homo sapiens) (UniProt P54764); test: Inhibition of wild-type human partial length EPHA4 (T601 to R897 residues) expressed in bacterial expression system at 1 uM by Kinomescan method relative to control
[2] = target: Casein kinase II subunit alpha (Homo sapiens) (UniProt P68400); test: Inhibition of wild-type human full length CSNK2A1 (M1 to Q391 residues) expressed in mammalian expression system at 1 uM by Kinomescan method relative to control
Casein kinase II subunit alpha (Homo sapiens), sequence (P68400 whole entry, looked up, the tested form may be a part): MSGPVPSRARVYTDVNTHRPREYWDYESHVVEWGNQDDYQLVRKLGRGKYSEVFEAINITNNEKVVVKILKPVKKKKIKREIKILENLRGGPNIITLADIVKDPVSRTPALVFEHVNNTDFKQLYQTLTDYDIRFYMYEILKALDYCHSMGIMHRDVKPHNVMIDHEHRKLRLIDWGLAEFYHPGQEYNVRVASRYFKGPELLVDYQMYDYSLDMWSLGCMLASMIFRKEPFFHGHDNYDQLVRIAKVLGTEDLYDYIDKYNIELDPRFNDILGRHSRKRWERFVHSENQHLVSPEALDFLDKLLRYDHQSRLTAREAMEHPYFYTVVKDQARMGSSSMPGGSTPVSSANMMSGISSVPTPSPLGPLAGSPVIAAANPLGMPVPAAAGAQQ

[3] = tested on: Epidermal growth factor receptor (Homo sapiens), P00533 [UNDEFINED MUTATION]; test: Inhibition of human partial length EGFR L747-E749del/A750P mutant expressed in bacterial expression system at 1 uM by Kinomescan method relative to control
Epidermal growth factor receptor (Homo sapiens), P00533 [UNDEFINED MUTATION], sequence (P00533 whole entry, looked up, stated change not applied, the tested form may be a part): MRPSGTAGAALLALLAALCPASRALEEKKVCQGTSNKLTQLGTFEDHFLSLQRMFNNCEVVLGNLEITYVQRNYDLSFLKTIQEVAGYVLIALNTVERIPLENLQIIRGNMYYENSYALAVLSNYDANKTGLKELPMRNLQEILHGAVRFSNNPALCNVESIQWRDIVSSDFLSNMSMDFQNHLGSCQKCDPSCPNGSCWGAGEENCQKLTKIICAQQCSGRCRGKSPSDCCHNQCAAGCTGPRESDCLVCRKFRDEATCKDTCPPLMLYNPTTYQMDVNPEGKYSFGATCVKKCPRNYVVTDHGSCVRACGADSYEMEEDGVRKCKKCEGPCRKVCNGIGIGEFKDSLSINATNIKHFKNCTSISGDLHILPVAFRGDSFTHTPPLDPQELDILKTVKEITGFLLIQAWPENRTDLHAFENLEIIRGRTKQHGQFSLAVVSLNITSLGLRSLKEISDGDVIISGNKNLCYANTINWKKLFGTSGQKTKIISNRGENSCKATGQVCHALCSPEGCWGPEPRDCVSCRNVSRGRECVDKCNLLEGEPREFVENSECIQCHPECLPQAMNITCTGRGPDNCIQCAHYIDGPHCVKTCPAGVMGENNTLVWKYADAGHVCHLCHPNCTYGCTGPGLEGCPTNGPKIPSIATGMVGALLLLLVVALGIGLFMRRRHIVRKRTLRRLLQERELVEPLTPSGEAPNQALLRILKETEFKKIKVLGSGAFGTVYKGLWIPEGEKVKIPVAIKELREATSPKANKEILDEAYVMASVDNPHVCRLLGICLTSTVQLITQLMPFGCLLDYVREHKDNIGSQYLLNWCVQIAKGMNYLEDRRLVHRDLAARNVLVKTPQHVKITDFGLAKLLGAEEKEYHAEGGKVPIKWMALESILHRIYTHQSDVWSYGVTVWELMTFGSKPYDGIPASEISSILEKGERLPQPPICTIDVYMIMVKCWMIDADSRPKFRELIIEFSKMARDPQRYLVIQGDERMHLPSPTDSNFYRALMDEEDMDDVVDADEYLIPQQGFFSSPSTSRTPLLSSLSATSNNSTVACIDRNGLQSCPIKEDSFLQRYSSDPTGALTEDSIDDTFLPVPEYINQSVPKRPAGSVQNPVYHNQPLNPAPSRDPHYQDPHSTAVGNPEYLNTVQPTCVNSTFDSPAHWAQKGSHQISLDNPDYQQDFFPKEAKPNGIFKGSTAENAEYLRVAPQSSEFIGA

[4] = target: Serine/threonine-protein kinase ULK2 (Homo sapiens) (UniProt Q8IYT8); test: Inhibition of wild-type human partial length ULK2 (M1 to S301 residues) expressed in mammalian expression system at 1 uM by Kinomescan method relative to control
[5] = Protein binding in rat plasma assessed as unbound fraction at 2 uM by rapid equilibrium dialysis method; type: ADME, cell-free
[6] = target: Mitogen-activated protein kinase kinase kinase 14 (Homo sapiens) (UniProt Q99558); test: Inhibition of wild-type human partial length NIK (L318 to P947 residues) expressed in mammalian expression system at 1 uM by Kinomescan method relative to control
Mitogen-activated protein kinase kinase kinase 14 (Homo sapiens), sequence (Q99558 whole entry, looked up, the tested form may be a part): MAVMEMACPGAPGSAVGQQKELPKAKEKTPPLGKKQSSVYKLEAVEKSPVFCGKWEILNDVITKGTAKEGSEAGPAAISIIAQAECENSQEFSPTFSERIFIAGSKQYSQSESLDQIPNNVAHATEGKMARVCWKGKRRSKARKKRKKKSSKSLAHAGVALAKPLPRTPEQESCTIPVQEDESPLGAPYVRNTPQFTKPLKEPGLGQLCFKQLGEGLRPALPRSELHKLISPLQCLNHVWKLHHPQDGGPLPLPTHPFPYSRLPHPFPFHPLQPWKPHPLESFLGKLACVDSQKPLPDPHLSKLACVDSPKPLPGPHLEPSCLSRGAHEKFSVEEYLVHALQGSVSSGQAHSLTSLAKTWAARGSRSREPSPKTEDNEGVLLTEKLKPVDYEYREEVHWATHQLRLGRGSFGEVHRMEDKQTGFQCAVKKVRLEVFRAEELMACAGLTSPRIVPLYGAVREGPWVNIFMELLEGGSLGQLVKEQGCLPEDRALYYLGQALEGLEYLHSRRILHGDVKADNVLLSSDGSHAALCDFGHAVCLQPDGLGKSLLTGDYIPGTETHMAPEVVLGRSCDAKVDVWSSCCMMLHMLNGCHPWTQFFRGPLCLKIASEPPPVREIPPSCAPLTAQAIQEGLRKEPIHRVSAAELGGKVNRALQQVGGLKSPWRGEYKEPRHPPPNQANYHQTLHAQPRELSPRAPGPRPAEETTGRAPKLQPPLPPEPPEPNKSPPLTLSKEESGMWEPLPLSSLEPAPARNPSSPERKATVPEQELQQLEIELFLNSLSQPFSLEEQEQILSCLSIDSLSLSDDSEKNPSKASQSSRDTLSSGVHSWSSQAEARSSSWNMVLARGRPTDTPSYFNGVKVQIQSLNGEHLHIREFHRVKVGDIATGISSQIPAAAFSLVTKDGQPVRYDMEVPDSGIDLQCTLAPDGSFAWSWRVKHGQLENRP

[7] = target: Phosphatidylinositol 4-phosphate 3-kinase C2 domain-containing subunit beta (Homo sapiens) (UniProt O00750); test: Inhibition of wild-type human partial length PIK3C2B (M1 to L1634 residues) expressed in mammalian expression system at 1 uM by Kinomescan method relative to control
[8] = target: RAF proto-oncogene serine/threonine-protein kinase (Homo sapiens) (UniProt P04049); test: Inhibition of wild-type human partial length RAF1 (I330 to T640 residues) expressed in bacterial expression system at 1 uM by Kinomescan method relative to control
RAF proto-oncogene serine/threonine-protein kinase (Homo sapiens), sequence (P04049 whole entry, the tested form may be a part): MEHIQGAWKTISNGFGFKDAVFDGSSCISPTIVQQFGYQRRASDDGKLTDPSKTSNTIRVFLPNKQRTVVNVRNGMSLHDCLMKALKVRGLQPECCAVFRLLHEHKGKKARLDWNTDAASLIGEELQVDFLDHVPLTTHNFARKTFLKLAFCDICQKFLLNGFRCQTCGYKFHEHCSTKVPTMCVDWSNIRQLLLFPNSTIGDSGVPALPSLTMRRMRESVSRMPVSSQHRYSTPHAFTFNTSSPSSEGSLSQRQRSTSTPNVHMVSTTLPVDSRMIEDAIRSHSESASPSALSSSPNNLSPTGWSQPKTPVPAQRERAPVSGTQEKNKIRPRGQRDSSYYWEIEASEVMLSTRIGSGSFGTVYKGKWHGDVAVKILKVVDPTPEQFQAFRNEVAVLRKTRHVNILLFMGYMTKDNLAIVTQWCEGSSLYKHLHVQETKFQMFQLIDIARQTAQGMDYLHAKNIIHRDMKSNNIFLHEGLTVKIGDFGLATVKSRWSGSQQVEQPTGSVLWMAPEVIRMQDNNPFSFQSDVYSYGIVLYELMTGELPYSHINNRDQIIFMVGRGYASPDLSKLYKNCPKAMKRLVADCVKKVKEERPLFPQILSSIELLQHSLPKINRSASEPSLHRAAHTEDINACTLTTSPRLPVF

[9] = tested on: Epidermal growth factor receptor (Homo sapiens), P00533 [UNDEFINED MUTATION]; test: Inhibition of human partial length EGFR L747-T751del/Sins mutant expressed in bacterial expression system at 1 uM by Kinomescan method relative to control
[10] = target: Mitogen-activated protein kinase kinase kinase kinase 4 (Homo sapiens) (UniProt O95819); test: Inhibition of wild-type human partial length MAP4K4 (M1 to R310 residues) expressed in bacterial expression system at 1 uM by Kinomescan method relative to control
[11] = target: Serine/threonine-protein kinase TBK1 (Homo sapiens) (UniProt Q9UHD2); test: Inhibition of wild-type human full length TBK1 (M1 to L729 residues) expressed in mammalian expression system at 1 uM by Kinomescan method relative to control
[12] = target: Tyrosine-protein kinase CSK (Homo sapiens) (UniProt P41240); test: Inhibition of wild-type human full length CSK (M1 to L450 residues) expressed in bacterial expression system at 1 uM by Kinomescan method relative to control
Tyrosine-protein kinase CSK (Homo sapiens), sequence (P41240 2-450 limits assumed): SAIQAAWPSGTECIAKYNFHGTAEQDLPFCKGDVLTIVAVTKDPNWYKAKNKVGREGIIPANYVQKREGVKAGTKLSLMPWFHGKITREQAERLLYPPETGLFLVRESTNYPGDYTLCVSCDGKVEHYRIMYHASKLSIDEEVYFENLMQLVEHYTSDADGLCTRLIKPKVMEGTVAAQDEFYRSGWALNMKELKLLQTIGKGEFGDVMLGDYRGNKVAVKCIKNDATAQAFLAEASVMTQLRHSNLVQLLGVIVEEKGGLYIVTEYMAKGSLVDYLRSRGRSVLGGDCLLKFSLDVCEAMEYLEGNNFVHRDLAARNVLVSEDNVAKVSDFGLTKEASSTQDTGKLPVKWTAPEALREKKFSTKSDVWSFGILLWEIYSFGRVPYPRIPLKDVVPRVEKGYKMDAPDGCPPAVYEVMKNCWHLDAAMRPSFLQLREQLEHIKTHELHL

[13] = target: Cyclin-dependent kinase 17 (Homo sapiens) (UniProt Q00537); test: Inhibition of wild-type human full length PCTK2 (M1 to F523 residues) expressed in bacterial expression system at 1 uM by Kinomescan method relative to control
[14] = target: Dual specificity mitogen-activated protein kinase kinase 7 (Homo sapiens) (UniProt O14733); test: Inhibition of wild-type human full length MKK7 (M1 to R419 residues) expressed in mammalian expression system at 10 uM by Kinomescan method relative to control
[15] = target: Interleukin-1 receptor-associated kinase 4 (Homo sapiens) (UniProt Q9NWZ3); test: Inhibition of wild-type human partial length IRAK4 (M1 to S460 residues) expressed in mammalian expression system at 10 uM by Kinomescan method relative to control
[16] = target: RAF proto-oncogene serine/threonine-protein kinase (Homo sapiens) (UniProt P04049); test: Inhibition of wild-type human partial length RAF1 (I330 to T640 residues) expressed in bacterial expression system at 10 uM by Kinomescan method relative to control
[17] = target: Tyrosine-protein kinase Fes/Fps (Homo sapiens) (UniProt P07332); test: Inhibition of wild-type human partial length FES (I527 to R822 residues) expressed in bacterial expression system at 10 uM by Kinomescan method relative to control
[18] = target: Discoidin domain-containing receptor 2 (Homo sapiens) (UniProt Q16832); test: Inhibition of wild-type human partial length DDR2 (V555 to E855 residues) expressed in mammalian expression system at 10 uM by Kinomescan method relative to control
[19] = target: Wee1-like protein kinase (Homo sapiens) (UniProt P30291); test: Inhibition of wild-type human partial length WEE1 (M291 to K575 residues) expressed in bacterial expression system at 10 uM by Kinomescan method relative to control
[20] = target: Tyrosine-protein kinase TXK (Homo sapiens) (UniProt P42681); test: Inhibition of wild-type human partial length TXK (L238 to W527 residues) expressed in bacterial expression system at 10 uM by Kinomescan method relative to control
[21] = target: Ephrin type-A receptor 6 (Homo sapiens) (UniProt Q9UF33); test: Inhibition of wild-type human partial length EPHA6 (Y700 to E1046 residues) expressed in bacterial expression system at 10 uM by Kinomescan method relative to control
[22] = target: Myosin-IIIb (Homo sapiens) (UniProt Q8WXR4); test: Inhibition of wild-type human partial length MYO3B (M1 to D357 residues) expressed in bacterial expression system at 10 uM by Kinomescan method relative to control
[23] = target: Rho-associated protein kinase 2 (Homo sapiens) (UniProt O75116); test: Inhibition of wild-type human partial length ROCK2 (M1 to T431 residues) expressed in mammalian expression system at 10 uM by Kinomescan method relative to control
Rho-associated protein kinase 2 (Homo sapiens), sequence (O75116 whole entry, looked up, the tested form may be a part): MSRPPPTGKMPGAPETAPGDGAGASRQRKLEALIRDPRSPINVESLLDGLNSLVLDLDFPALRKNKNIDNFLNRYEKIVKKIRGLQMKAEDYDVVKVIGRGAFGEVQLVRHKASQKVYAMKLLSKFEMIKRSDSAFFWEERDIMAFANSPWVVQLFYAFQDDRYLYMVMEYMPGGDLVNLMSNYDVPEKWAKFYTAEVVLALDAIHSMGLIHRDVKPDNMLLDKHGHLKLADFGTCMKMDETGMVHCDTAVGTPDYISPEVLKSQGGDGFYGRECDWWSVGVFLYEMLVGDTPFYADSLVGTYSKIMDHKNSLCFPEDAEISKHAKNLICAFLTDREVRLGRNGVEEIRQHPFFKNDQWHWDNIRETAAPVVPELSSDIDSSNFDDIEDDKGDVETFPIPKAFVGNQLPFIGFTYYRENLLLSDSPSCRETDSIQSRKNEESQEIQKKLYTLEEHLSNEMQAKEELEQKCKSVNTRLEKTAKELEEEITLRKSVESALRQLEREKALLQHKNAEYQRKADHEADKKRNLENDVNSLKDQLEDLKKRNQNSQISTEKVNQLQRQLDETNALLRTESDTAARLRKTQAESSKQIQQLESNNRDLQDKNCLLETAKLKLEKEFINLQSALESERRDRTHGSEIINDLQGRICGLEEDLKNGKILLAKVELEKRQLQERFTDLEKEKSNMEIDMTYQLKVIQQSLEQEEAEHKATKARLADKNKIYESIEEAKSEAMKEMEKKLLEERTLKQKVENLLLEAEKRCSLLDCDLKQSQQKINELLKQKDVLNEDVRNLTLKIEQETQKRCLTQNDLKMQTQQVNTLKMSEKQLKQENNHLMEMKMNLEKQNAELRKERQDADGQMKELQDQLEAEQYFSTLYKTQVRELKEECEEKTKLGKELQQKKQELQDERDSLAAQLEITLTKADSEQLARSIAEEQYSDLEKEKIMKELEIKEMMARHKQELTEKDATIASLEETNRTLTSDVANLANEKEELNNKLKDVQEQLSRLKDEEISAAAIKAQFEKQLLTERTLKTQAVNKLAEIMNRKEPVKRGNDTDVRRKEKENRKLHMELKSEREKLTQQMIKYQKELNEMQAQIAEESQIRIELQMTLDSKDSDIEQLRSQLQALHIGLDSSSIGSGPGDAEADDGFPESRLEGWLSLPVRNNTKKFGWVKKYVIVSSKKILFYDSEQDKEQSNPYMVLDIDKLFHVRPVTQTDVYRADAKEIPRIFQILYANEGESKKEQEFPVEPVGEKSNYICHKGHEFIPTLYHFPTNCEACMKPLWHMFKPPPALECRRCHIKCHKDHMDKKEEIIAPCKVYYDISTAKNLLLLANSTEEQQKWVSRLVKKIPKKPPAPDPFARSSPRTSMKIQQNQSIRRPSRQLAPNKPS

[24] = target: Serine/threonine-protein kinase 17A (Homo sapiens) (UniProt Q9UEE5); test: Inhibition of wild-type human partial length DRAK1 (R32 to E363 residues) expressed in bacterial expression system at 10 uM by Kinomescan method relative to control
[25] = target: Phosphorylase b kinase gamma catalytic chain, liver/testis isoform (Homo sapiens) (UniProt P15735); test: Inhibition of wild-type human partial length PHKG2 (M1 to W300 residues) expressed in bacterial expression system at 10 uM by Kinomescan method relative to control
[26] = target: Calcium/calmodulin-dependent protein kinase type IV (Homo sapiens) (UniProt Q16566); test: Inhibition of wild-type human partial length CAMK4 (A22 to A322 residues) expressed in bacterial expression system at 10 uM by Kinomescan method relative to control
[27] = target: Cyclin-dependent kinase 18 (Homo sapiens) (UniProt Q07002); test: Inhibition of wild-type human full length PCTK3 (M3 to F474 residues) expressed in bacterial expression system at 10 uM by Kinomescan method relative to control
[28] = target: Mitogen-activated protein kinase kinase kinase 14 (Homo sapiens) (UniProt Q99558); test: Inhibition of wild-type human partial length NIK (L318 to P947 residues) expressed in mammalian expression system at 10 uM by Kinomescan method relative to control

O=C(Nc1cccc([C@@H]2CN(c3ncnc4[nH]ccc34)CCN2CCO)c1)Nc1c(F)cccc1N1CCCC1
inhibition [1]: 100% | inhibition [2]: 93% | inhibition [3]: 87% | inhibition [4]: 39% | Fu [5]: 0.13% | inhibition [6]: 84% | inhibition [7]: 87% | inhibition [8]: 86% | inhibition [9]: 76% | inhibition [10]: 100% | inhibition [11]: 81% | inhibition [12]: 65% | inhibition [13]: 100%

O=C(Nc1cccc([C@H]2CCCN(c3ncnc4[nH]ccc34)C2)c1)Nc1ccccc1N1CCCC1
inhibition [14]: 68% | inhibition [15]: 85% | inhibition [16]: 86% | inhibition [17]: 99% | inhibition [18]: 0.55% | inhibition [19]: 100% | inhibition [20]: 94% | inhibition [21]: 51% | inhibition [22]: 60% | inhibition [23]: 49% | inhibition [24]: 46% | inhibition [25]: 83% | inhibition [26]: 100% | inhibition [27]: 70% | inhibition [28]: 75%
